According to ChEMBL document CHEMBL5576094, “A Diterpenoid of the Medicinal Plant Andrographis paniculata Targets Cutaneous TRPV3 Channel and Relieves Itch” (J Nat Prod, 2024):

What was measured:
[1] = tested on: Mus musculus; test: Antipruritic activity in histamine-induced scratching ICR mouse model assessed as number of scratching bouts at 10 mg/kg, po administered via gavage pretreated for 30 mins followed by histamine stimulation and measured for 30 mins (reference value: 123 +/- 6); assay type: functional; conditions: time 60 min, 1 h
[2] = tested on: Mus musculus; test: Antipruritic activity in histamine-induced scratching ICR mouse model assessed as inhibition of neck scratching behavior at 10 mg/kg, po administered via gavage pretreated for 30 mins followed by histamine stimulation and measured for 30 mins relative to control; assay type: functional; conditions: 1 h, time 60 min
[3] = molecular target: T1, Transient receptor potential cation channel subfamily V member 3 (Homo sapiens, UniProt Q8NET8); test: Inhibition of human TRPV3 expressed in HEK293 cells assessed as reduction in 2-APB induced channel current at voltage ramp from -100 to +100 mV by whole-cell patch clamp electrophysiology; assay type: cell-based
T1 sequence (Q8NET8 whole entry): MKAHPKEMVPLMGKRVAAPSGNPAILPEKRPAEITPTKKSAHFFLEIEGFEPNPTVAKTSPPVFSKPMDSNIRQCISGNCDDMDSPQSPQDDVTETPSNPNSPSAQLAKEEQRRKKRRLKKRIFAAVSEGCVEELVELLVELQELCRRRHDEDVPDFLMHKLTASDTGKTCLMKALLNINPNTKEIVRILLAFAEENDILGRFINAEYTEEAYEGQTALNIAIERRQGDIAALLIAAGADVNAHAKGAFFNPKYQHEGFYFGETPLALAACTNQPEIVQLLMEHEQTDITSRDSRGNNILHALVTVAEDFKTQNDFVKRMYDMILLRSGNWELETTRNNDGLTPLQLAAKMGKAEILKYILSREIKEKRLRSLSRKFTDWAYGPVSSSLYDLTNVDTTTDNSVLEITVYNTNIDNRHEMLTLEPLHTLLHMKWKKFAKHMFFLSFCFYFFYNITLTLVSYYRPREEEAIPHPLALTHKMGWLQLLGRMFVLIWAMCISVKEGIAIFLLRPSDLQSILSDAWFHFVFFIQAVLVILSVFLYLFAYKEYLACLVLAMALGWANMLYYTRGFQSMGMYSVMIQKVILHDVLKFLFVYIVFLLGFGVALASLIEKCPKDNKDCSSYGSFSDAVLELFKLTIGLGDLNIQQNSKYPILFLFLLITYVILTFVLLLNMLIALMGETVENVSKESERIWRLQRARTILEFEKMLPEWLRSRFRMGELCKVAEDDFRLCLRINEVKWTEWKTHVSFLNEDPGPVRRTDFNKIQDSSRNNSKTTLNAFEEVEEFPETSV

[4] = organism: Mus musculus; test: Antipruritic activity in carvacrol-induced scratching C57BL/6 mouse model assessed as inhibition of neck scratching behavior at 30 uM, ID pretreated for 30 mins followed by carvacrol stimulation and measured for 30 mins relative to control; assay type: functional; conditions: C57BL/6, 1 h, time 60 min
[5] = organism: Mus musculus; test: Antipruritic activity in carvacrol-induced scratching C57BL/6 mouse model assessed as inhibition of neck scratching behavior at 300 uM, ID pretreated for 30 mins followed by carvacrol stimulation and measured for 30 mins relative to control; assay type: functional; conditions: C57BL/6, 1 h, time 60 min
[6] = organism: Mus musculus; test: Antipruritic activity in histamine-induced scratching C57BL/6 mouse model assessed as inhibition of neck scratching behavior at 0.3 to 30 uM, ID pretreated for 30 mins followed by histamine stimulation and measured for 30 mins relative to control; assay type: functional; conditions: dose 0.3-30 µM, time 60 min, 1 h

Row | IC50 [3] | SMILES | Activity [1] | inhibition in vivo at 10 mg/kg [2] | inhibition in vivo at 30 µM [4] | inhibition in vivo at 300 µM [5] | inhibition (INH) [6]
1 | – | CCOC(=O)N1CCC(=C2c3ccc(Cl)cc3CCc3cccnc32)CC1 [LORATADINE] | 72 | ~40% | – | – | –
2 | 6.7 µM | C[C@@H]1O[C@@H](O[C@@H]2[C@@H](O)[C@H](OCCc3ccc(O)c(O)c3)O[C@H](CO[C@@H]3OC[C@](O)(CO)[C@H]3O)[C@H]2OC(=O)/C=C/c2ccc(O)c(O)c2)[C@H](O)[C@H](O)[C@H]1O | – | – | ~56% | 77% | 57%
